Here are results for three molecules from patent US9896476B1, “Glycyrrhetic acid derivatives” (KING SAUD UNIVERSITY, priority 2017, dated 2018).

Where “and” joins values, the source holds several entries; their conditions need not be identical. Equal entries are not always repeated.

The test system of test [1] is cotton pellet-induced granuloma. Briefly: Cotton pellet-induced granuloma bioassay. It is filed as in vivo, rat. The note with it: for ED50: rat cotton pellet granuloma; for The anti-inflammatory activity ED50: rat, compound-impregnated cotton pellets implanted s.c., 7 days, dose response 4, 7, 10 and 15 μmol. On the procedure:
An animal model cotton pellet-induced granuloma bioassay was used to determine ED50 for the compounds (2)-(4). Adult male Sprague Dawley rats (120-140 g), were used in the cotton pellet-induced granuloma bioassays. The rats were acclimated one week prior to use and allowed unlimited access to standard rat chow and water. Prior to the start of the experiment, the animals were randomly divided into groups of six rats each. Cotton pellet (35±1 mg) cut from dental rolls were impregnated with 0.2 ml (containing 0.01 mmol) of a solution of each of compounds (2)-(4) in chloroform, and the solvent was allowed to evaporate. Each cotton pellet was subsequently injected with 0.2 ml of an aqueous solution of antibiotics (1 mg penicillin G and 1.3 mg dihydrostreptomycin/ml). Two pellets were implanted subcutaneously, one in each axilla of the rat, under mild general anesthesia. One group of animals received the standard reference pharmaceutical indomethacin and the antibiotics at the same level. Pellets containing only the antibiotics were similarly implanted in control rats. Seven days later, the animals were sacrificed and the two cotton pellets, with adhering granulomas, were removed, dried for 48 h at 60° C. and weighed. The increment in dry weight (difference between the initial and final weight) was taken as a measure of the dry weight of granuloma±SEM. The dry weight of granuloma and the percentage reduction in dry weight of granuloma relative to the respective control value were calculated for all rats. The ED50 values were determined through dose response curves using doses of 4, 7, 10 and 15 μmol for each compound.

The target of a further test is T1, Human COX-2 (Homo sapiens, UniProt P35354).
T1 sequence (P35354 18-604): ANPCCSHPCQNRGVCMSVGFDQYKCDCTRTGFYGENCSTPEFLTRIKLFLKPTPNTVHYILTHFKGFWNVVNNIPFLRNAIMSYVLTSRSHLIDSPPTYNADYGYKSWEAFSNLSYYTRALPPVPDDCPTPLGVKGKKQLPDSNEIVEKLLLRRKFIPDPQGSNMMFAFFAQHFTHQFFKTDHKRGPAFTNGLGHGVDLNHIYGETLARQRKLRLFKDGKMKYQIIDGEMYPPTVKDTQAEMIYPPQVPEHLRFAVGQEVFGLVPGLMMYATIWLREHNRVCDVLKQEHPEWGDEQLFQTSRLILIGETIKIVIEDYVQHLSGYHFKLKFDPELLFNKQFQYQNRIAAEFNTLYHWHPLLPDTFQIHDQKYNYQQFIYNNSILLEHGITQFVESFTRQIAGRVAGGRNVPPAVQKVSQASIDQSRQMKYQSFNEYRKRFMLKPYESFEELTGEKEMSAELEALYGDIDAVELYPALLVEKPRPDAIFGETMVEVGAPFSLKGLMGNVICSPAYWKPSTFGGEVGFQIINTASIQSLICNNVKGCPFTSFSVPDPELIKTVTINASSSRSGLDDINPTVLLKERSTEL
In words: Human COX-2 enzymatic assay. Type of test: biochemical. The note with it: for IC50: 5 min pre-incubation, 45 min incubation with [14C]-arachidonic acid at 24° C.; for Approximate selectivity ratio COX-1/COX-2: ratio of COX-1 IC50 to COX-2 IC50. On the procedure:
Human COX-1 and COX-2 activities were determined as described by Wakitani et al. 0.2 ml of 100 mmol Tris HCl buffer (pH 8) containing hematin (2 mmol) and tryptophan (5 mmol) as cofactors. The reaction mixture was pre-incubated with each test compound individually for 5 min at 24° C. [14C]-arachidonic acid (100.00 dpm, 30 mmol) was added to the mixture and then incubated for 2 min (for COX-1) or 45 min (for COX-2) at 24° C. The reaction was stopped by the addition of 400 μl of a solution composed of Et2O/MeOH/1 M citric acid (30:4:1, v/v/v). After centrifugation of the mixture at 1700×/g for 5 min at 4° C., 50 μl of the upper phase was applied to a thin layer chromatography plate. Thin layer chromatography was performed at 4° C. with solvent system of Et2O/MeOH/AcOH (90:2:0.1, v/v/v). Enzyme activity was calculated from the percent conversion of arachidonic acid to PGH2 and its de-composition products, using radiometric photographic system.

The next test deals with pyloric ligation ulcer. Briefly: Pyloric ligation ulcer model (antiulcer activity). It is filed as in vivo, rat. The following applies: rats, oral 30 min prior to pyloric ligation, 4 h, compounds 100 mg/kg, omeprazole 40 mg/kg; for Free acid / Total acid: gastric contents. The protocol: Pyloric ligation ulcer models were used to test each of compounds (2)-(4) for antiulcer activity. Male rats (140 and 175 g) were selected for pyloric ligation ulcer model experiments and divided into eleven groups consisting of six animals each. The rats were fasted overnight. One group received normal saline 2 ml/kg (negative control), the second group received omeprazole 40 mg/kg (positive control) and the other groups received each of the compounds (2)-(4) (100 mg/kg) by oral route 30 min prior to pyloric ligation. Animals were sacrificed 4 h later and their stomachs were opened to collect the gastric contents. The gastric contents were centrifuged at 1000 rpm for 10 min. One ml of the supernatant liquid was pipetted out and diluted to a total volume of 10 ml with distilled water. The solution was titrated against 0.01 N sodium hydroxide solution using Topfer's reagent to indicate the end point when the solution turned […]. The volume of NaOH consumed was taken as corresponding to the free acidity. Titration was further continued until the solution regained pink color. The volume of sodium hydroxide solution required to achieve the pink color was noted and total acidity calculated. After opening the stomach, the ulcer index was calculated.
The results are expressed as mean±SEM. The difference between groups was determined using the one way analysis of variance (ANOVA) followed by Dunnett's test. P<0.05 was considered significant.

The IC50 is the midpoint of a concentration-inhibition curve. As for `CC1(C(=O)O)CCC2(C)CCC3(C)C(=CC(=O)C4C5(C)C/C(=C\c6ccc(F)cc6)C(=O)C(C)(C)C5CCC43C)C2C1` (stereo not drawn) [Compound 2, 2-(4-fluorobenzylidene)-3,11-dioxo-18β-olean-12-en-30-oic acid], in test [1], the ED50 was 1.52 µmol and the “The anti-inflammatory activity ED50” value worked out at 1.52 ± 0.0019 µmol. On Human COX-2, half-maximal inhibition (IC50) required 109 nM and the “Approximate selectivity ratio COX-1/COX-2” value is reported as 2733.94. In addition, in the test with pyloric ligation ulcer, the Free acid worked out at 0.09 mEq/L, the Total acid was 0.09 mEq/L and the “Ulcer Index” value was 1.16.
As to `Cn1nc2c(c1-c1ccc(F)cc1)CC1(C)C(CCC3(C)C1C(=O)C=C1C4CC(C)(C(=O)O)CCC4(C)CCC13C)C2(C)C` (stereo not drawn) [Compound 3, 2-(4-fluorobenzylidene)-3,11-dioxo-18β-olean[3,2-c]-1′H-5′-(4-fluorophenyl)-N-methylpyrazoline-12-en-30-oic acid], in test [1], the ED50 came out at 1.47 µmol and the “The anti-inflammatory activity ED50” value turned out to be 1.47 ± 0.0021 µmol. Also, at Human COX-2, 91 nM corresponded to half-maximal inhibition (IC50); the “Approximate selectivity ratio COX-1/COX-2” value was 3438.57 and 3428.57. Moreover, in the test with pyloric ligation ulcer, the Free acid is 0.08 mEq/L, the Total acid turned out to be 0.08 mEq/L and the “Ulcer Index” value came out at 1.12.
With `Cn1nc2c(c1-c1ccc(F)cc1)CC1(C)C(CCC3(C)C1C(=O)C=C1C4CC5(C)CC(OC5=O)C4(C)CCC13C)C2(C)C` (stereo not drawn) [Compound 4, 2-(4-fluorobenzylidene)-3,11-dioxo-18β-olean[3,2-c]-1′H-5′-(4-fluorophenyl)-N-methylpyrazoline-12-en-30-oic acid (30→22β) lactone], in test [1], the ED50 worked out at 1.35 µmol and the “The anti-inflammatory activity ED50” value amounted to 1.35 ± 0.0034 µmol. At Human COX-2, half-maximal inhibition (IC50) was put at 87 nM and the “Approximate selectivity ratio COX-1/COX-2” value is recorded as 3965.52. Also, in the test with pyloric ligation ulcer, the Free acid turned out to be 0.06 mEq/L, the Total acid was found to be 0.06 mEq/L and the “Ulcer Index” value was 1.04.
